In patent US8481600B2, “Formulation of aspirin that is stable and showing minimal hydrolysis for parenteral administration for the treatment of cardiovascular and other disease states” (Academic Pharmaceuticals, Inc., priority 2007, dated 2013):

Assay: Dissolution of ASA in buffers and solvent systems (clear solution or suspension)
Type: physicochemical
Settings: for Dissolution of aspirin in buffer: aspirin 10 to 50 mg/ml in 10 ml; for Dissolution of aspirin in solvent system: aspirin up to 75 mg/ml
Description: Parenteral solutions comprising aspirin in buffers are typically prepared by mixing the required amount of aspirin in the buffer. The process is preferably carried out at room temperature, although other temperatures are acceptable for these preparations.
ASA (aspirin) was attempted to be dissolved in a number of solvent systems and then stability was determined if these solutions provided clear, colorless dissolution of ASA. In the following buffers aspirin was found riot to be soluble. These buffers are listed below: • 1.
In another series of experiments, dissolution of aspirin in solvents that are listed below were attempted to provide parenteral solutions suitable for intravenous administration comprising an effective amount of aspirin. […] The pH of the solutions ranged from 1.5 to 6.8. Ph adjustments were made using 1N NaOH solution. • 1. To water (2.0 ml), 1-propanol (0.5 ml) and Tween 20 (0.5 ml) was added to aspirin at a concentration level of up to 75 mg/ml. […] To water (2.0 ml), 1-propanol (0.5 ml) and Tween 40 (0.5 ml) was added to aspirin at a concentration level of up to 75 mg/ml. […] To water (2.0 ml), 1-propanol (0.5 ml) and Tween 60 (0.5 ml) was added to aspirin at a concentration level of up to 75 mg/ml. […] To water (2.0 ml), 1-propanol (0.5 ml) and Tween 80 (0.5 ml) was added to aspirin at a concentration level of up to 75 mg/ml. […] To water (2.0 ml), 1-propanol (0.5 ml) and PEG 300 was added to aspirin at a concentration level of up to 75 mg/ml. […] To water (2.0 ml), 1-propanol (0.5 ml) and PEG 400 was added to aspirin at a concentration level of up to 75 mg/ml. […] To water (2.0 ml), 1-propanol (0.5 ml) and PEG 600 was added to aspirin at a concentration level of up to 75 mg/ml. […] To water (2.0 ml), 1-propanol (0.5 ml) and glycerol was added to aspirin at a concentration level of up to 75 mg/ml. […] To water (2.0 ml), DMSO (1-2%) and Tween 20 was added to aspirin at a concentration level of up to 75 mg/ml. […] To water (2.0 ml), DMSO (1-2%) and Tween 40 was added to aspirin at a concentration level of up to 75 mg/ml. […] To water (2.0 ml), DMSO (1-2%) and Tween 60 was added to aspirin at a concentration level of up to 75 mg/ml. […] To water (2.0 ml), DMSO (1-2%) and Tween 80 was added to aspirin at a concentration level of up to 75 mg/ml. […] To glycerine (1 ml), 1-propanol (3 ml) and Tween 80 (0.2 ml) was added to aspirin at a concentration level of up to 75 mg/ml. […] To glycerine (1 ml), 1,2-propanol and Tween 80 (0.2 ml) was added to aspirin at a concentration level, of up to 75 mg/ml. […] To glycerine (1 ml), PEG 300 and Tween 80 (0.2 ml) was added to aspirin at a concentration of up to 75 mg/ml. […] To glycerine (1 ml), PEG 400 and Tween 80 (0.2 ml) was added to aspirin at a concentration of up to 75 mg/ml. […] To glycerine (1 ml), PEG 600 and Tween 80 (0.2 ml) was added to aspirin at a concentration of up to 75 mg/ml.
• 1. To N,N-Dimethylacetamide (NNDMA) (10 ml), aspirin was added at a concentration level of up to 500 mg/ml. […] To N,N-Dimethylacetamide (NNDMA) (10 ml) and ASA, glycerol (0.1 in 10 ml) added, Tween 20 (0.1 in 10 ml) were added. […] To N,N-Dimethylacetamide (NNDMA) (10 ml) and ASA, glycerol (0.1 in 10 ml), Tween 40 (0.1 in 10 ml) were added. […] To N,N-Dimethylacetamide (NNDMA) (10 ml) and ASA, glycerol (0.1 in 10 ml), Tween 60 (0.1 in 10 ml) were added. […] To N,N-Dimethylacetamide (NNDMA) (10 ml) and ASA, glycerol (0.1 in 10 ml), Tween 80 (0.1 in 10 ml) were added. […] To N,N-Dimethylacetamide (NNDMA) (10 ml) and ASA, glycerol (0.1 in 10 ml) were added. […] To N,N-Dimethylacetamide (NNDMA) (10 ml) and ASA, glycerol (0.1 in 10 ml), and DMSO (1-2%) were added. […] To N,N-Dimethylacetamide (NNDMA) (10 ml) and ASA, DMSO (1-2%) was added. […] The amount of aspirin present was greater than 98% at room temperature for 6 months. […]

Structure (SMILES): CC(=O)Oc1ccccc1C(=O)O [ASA, aspirin]
- solubility in N,N-dimethylacetamide: readily soluble
- Dissolution of ASA in NNDMA and other diluents: appearance (1. N,N-Dimethylacetamide (NNDMA) (10 ml), aspirin up to 500 mg/ml): Clear Purity
- Dissolution of ASA in NNDMA and other diluents: appearance (1. N,N-Dimethylacetamide (NNDMA) (10 ml), aspirin up to 500 mg/ml, listed as aspirin): clear solution
- Dissolution of ASA in NNDMA and other diluents: appearance (2. NNDMA (10 ml), Glycerol (0.1 in 10 ml), Tween 20 (0.1 in 10 ml)): clear solution
- Dissolution of ASA in NNDMA and other diluents: appearance (3. NNDMA (10 ml), Glycerol (0.1 in 10 ml), Tween 40 (0.1 in 10 ml)): clear solution
- Dissolution of ASA in NNDMA and other diluents: appearance (4. NNDMA (10 ml), Glycerol (0.1 in 10 ml), Tween 60 (0.1 in 10 ml)): clear solution
- Dissolution of ASA in NNDMA and other diluents: appearance (5. NNDMA (10 ml), Glycerol (0.1 in 10 ml), Tween 80 (0.1 in 10 ml)): clear solution
- Dissolution of ASA in NNDMA and other diluents: appearance (6. NNDMA (10 ml), Glycerol (0.1 in 10 ml)): clear solution
- Dissolution of ASA in NNDMA and other diluents: appearance (7. NNDMA (10 ml), Glycerol (0.1 in 10 ml), DMSO (1-2%)): clear solution
- Dissolution of ASA in NNDMA and other diluents: appearance (8. NNDMA (10 ml), DMSO (1.2%) (text: 1-2%)): clear solution
- Dissolution of ASA in buffer (AMPSO buffer 0.05 M, aspirin 10 to 50 mg/ml in 10 ml (″ = not soluble), listed as aspirin): suspension that was not clear
- Dissolution of ASA in buffer (AMPSO buffer 0.10 M, aspirin 10 to 50 mg/ml in 10 ml (″ = not soluble), listed as aspirin): suspension that was not clear
- Dissolution of ASA in buffer (Bicine buffer 0.10 M, aspirin 10 to 50 mg/ml in 10 ml (″ = not soluble), listed as aspirin): suspension that was not clear
- Dissolution of ASA in buffer (Bis Tris buffer 0.05 M, aspirin 10 mg/ml to 50 mg/ml in 10 ml): 0.05 M not soluble
- Dissolution of ASA in buffer (Bis Tris buffer 0.05 M, aspirin 10 mg/ml to 50 mg/ml in 10 ml, listed as aspirin): suspension that was not clear
- Dissolution of ASA in buffer (Bis Tris buffer 0.10 M, aspirin 10 mg/ml to 50 mg/ml in 10 ml): 0.10 M not soluble
- Dissolution of ASA in buffer (Bis Tris buffer 0.10 M, aspirin 10 mg/ml to 50 mg/ml in 10 ml, listed as aspirin): suspension that was not clear
- Dissolution of ASA in buffer (CAPS buffer 0.05 M, aspirin 10 to 50 mg/ml in 10 ml (″ = not soluble), listed as aspirin): suspension that was not clear
- Dissolution of ASA in buffer (CAPS buffer 0.10 M, aspirin 10 to 50 mg/ml in 10 ml (″ = not soluble), listed as aspirin): suspension that was not clear
- Dissolution of ASA in buffer (HEPES buffer 0.05 M, aspirin 10 to 50 mg/ml in 10 ml (″ = not soluble), listed as aspirin): suspension that was not clear
- Dissolution of ASA in buffer (HEPES buffer 0.10 M, aspirin 10 to 50 mg/ml in 10 ml (″ = not soluble), listed as aspirin): suspension that was not clear
- solubility (N,N-dimethylacetamide (NNDMA), organic solvent or mixture, thermodynamic from solid, read-out: concentration at which aspirin was found to be soluble in NNDMA): ≤ 500 mg/mL
- Dissolution of ASA in buffer (Saline (normal) 0.10 M, aspirin 10 to 50 mg/ml in 10 ml (″ = not soluble), listed as aspirin): suspension that was not clear
- Dissolution of ASA in buffer (TAPS buffer 0.05 M, aspirin 10 to 50 mg/ml in 10 ml (″ = not soluble), listed as aspirin): suspension that was not clear
- Dissolution of ASA in buffer (TAPS buffer 0.10 M, aspirin 10 to 50 mg/ml in 10 ml (″ = not soluble), listed as aspirin): suspension that was not clear
- Dissolution of ASA in buffer (Tricine buffer 0.10 M, aspirin 10 to 50 mg/ml in 10 ml (″ = not soluble), listed as aspirin): suspension that was not clear
- Dissolution of aspirin in buffer (Tricine buffer (0.1M), list item 7): suspension that was not clear
- Dissolution of aspirin in buffer (bicine buffer (0.1M), list item 8): suspension that was not clear
- Dissolution of aspirin in solvent system (glycerine (1 ml), 1,2-propanol, Tween 80 (0.2 ml)): clear solution
- Dissolution of aspirin in solvent system (glycerine (1 ml), 1-propanol (3 ml), Tween 80 (0.2 ml)): clear solution
- Dissolution of aspirin in solvent system (glycerine (1 ml), PEG 300, Tween 80 (0.2 ml)): clear solution
- Dissolution of aspirin in solvent system (glycerine (1 ml), PEG 400, Tween 80 (0.2 ml)): clear solution
- Dissolution of aspirin in solvent system (glycerine (1 ml), PEG 600, Tween 80 (0.2 ml)): clear solution
- Dissolution of aspirin in buffer (sodium acetate (pH 6.5 and 3.8) buffer (0.1M), list item 6): suspension that was not clear
- Dissolution of aspirin in buffer (sodium acetate pH 6.5 and 3.8 buffer (0.1M), list item 15): suspension that was not clear
- Dissolution of aspirin in solvent system (water (2.0 ml), 1-propanol (0.5 ml), PEG 300): clear solution
- Dissolution of aspirin in solvent system (water (2.0 ml), 1-propanol (0.5 ml), PEG 400): clear solution
- Dissolution of aspirin in solvent system (water (2.0 ml), 1-propanol (0.5 ml), PEG 600): clear solution
- Dissolution of aspirin in solvent system (water (2.0 ml), 1-propanol (0.5 ml), Tween 20 (0.5 ml)): clear solution
- Dissolution of aspirin in solvent system (water (2.0 ml), 1-propanol (0.5 ml), Tween 40 (0.5 ml)): clear solution
- Dissolution of aspirin in solvent system (water (2.0 ml), 1-propanol (0.5 ml), Tween 60 (0.5 ml)): clear solution
- Dissolution of aspirin in solvent system (water (2.0 ml), 1-propanol (0.5 ml), Tween 80 (0.5 ml)): clear solution
- Dissolution of aspirin in solvent system (water (2.0 ml), 1-propanol (0.5 ml), glycerol): clear solution
- Dissolution of aspirin in solvent system (water (2.0 ml), DMSO (1-2%), Tween 20): clear solution
- Dissolution of aspirin in solvent system (water (2.0 ml), DMSO (1-2%), Tween 40): clear solution
- Dissolution of aspirin in solvent system (water (2.0 ml), DMSO (1-2%), Tween 60): clear solution
- Dissolution of aspirin in solvent system (water (2.0 ml), DMSO (1-2%), Tween 80): clear solution
